Data reported in patent US20060002934A1 (priority 2002, published 2006).
Entries after “also recorded” stand apart in the source; their conditions may differ.

Legend:
Type in all cases: cell-based, human
[1] = test system: MDA-MB-435S cells expressing del 8 E-cadherin; experiment: Cell motility by time-lapse laser scanning microscopy, del 8 E-cadherin transfectants; settings: del 8 E-cadherin cells on collagen I, Tyrphostin AG 1478 6.3 μM; for cell motility enhanced by mutant E-cadherin (effect of inhibitor): 7 h, PD 98059 50 μM, LY 294002 40 μM
Procedure: For time-lapse laser scanning microscopy, cells were cultivated in a microscope-coupled incubation chamber (Zeiss, Jena, Germany) at 37° C. under 5% CO2. Cells were seeded at a density of 2×10^5 cells per 3.5-cm in plates with a glass bottom which were purchased either uncoated or coated with poly-lysine from MatTek Corporation (Ashland, Mass., USA). Uncoated plates were coated for 4 h at 37° C. with collagen I (100 μg/ml, Sigma, Deisenhofen, Germany) or overnight at 4° C. with fibronectin (10 μg/ml, Sigma) or vitronectin (10 μg/ml, Becton Dickinson, Bedford, USA). Kinase inhibitors were used at final concentrations of 50 μM (PD 98059, Sigma, Deisenhofen, Germany), 40 μM (LY 294002, Calbiochem, Schwalbach, Germany), or 6.3 μM (Tyrphostin AG 1478, Sigma). […] Phase contrast images were taken at 3 min intervals with an Axiovert laser scanning microscope LSM 510 (Zeiss) with lens PNF 20×/0.4 PH2 and a helium-neon laser at 543 nm in transmission scanning mode. The percentage of motile cells was measured by drawing the outlines of cells on the screen and counting the cells which moved completely out of the initial area within the recording time of 7 h. Semiautomatic tracing of cell nuclei using the laser scanning microscope software from Zeiss allowed determination of the individual cell speed. The calculation of the cell speed is based on the division of the displacement of an individual cell divided by the total time of recording. Cells were brought in suspension by disruption of cell-cell and cell-matrix interactions and seeded on glass plates precoated with collagen type 1. Cell motility was analyzed by long-term recordings of a duration of 7 h starting 2 h after plating using a laser scanning microscope coupled with a temperature- and CO2-controlled incubation chamber. Motile cells were defined as cells which were able to move out of their initial space within 7 h according to a method described by Marks (J. Cell Bioll. 112 (1991), 149-158). The percentage of motile cells was similar in non-transfected (30%) or wt E-cadherin expressing MDA-MB-435S cells (26%) but elevated upon expression of mutant E-cadherin: […] (52%), […] (58%) and p8 (45%, FIG. 1B). It has been shown for a number of cell lines that the motile behavior of individual cells is variable and therefore it is advisable to investigate a large number of cells to obtain a reliable determination of cellular velocity (Hartmann-Petersen, Cytometry 40 (2000), 260-270). In order to determine the motility of individual cells, the center of the nucleus was semiautomatically traced and the speed of 60 cells per cell line derived from at least three independent experiments was calculated. The range between the minimal and the maximal cell speed and the median of cell speeds were used as motility parameters. […]

[2] = test system: p44/42 MAP kinase; experiment: Western blot with phosphorylation-specific antibodies, MAP kinase; settings: data not shown
Procedure: (§1) For immunoblot analysis, cells were seeded at a density of 6×10^5 cells per 10 cm tissue culture dish and lysed 5 h later with 500 μL-CAM buffer (140 mM NaCl, 4.7 mM KCl, 0.7 mM MgSO4, 1.2 mM CaCl2, 10 mM Hepes pH 7.4, containing 1% (v/v) Triton-X-100 and 1 mM phenylmethylsulfonylfluoride (PMSF) (Cunningham, Proc. Acad. Sci. USA 81 (1984), 5787-5791). Proteins were separated by 7% SDS-polyacrylamide gel electrophoresis followed by transfer to nitrocellulose (Schleicher & Schuell, Dassel, Germany) or PVDF (Bio-Rad Laboratories, München, Germany) membranes. Polyclonal antibodies against total or activated kinases were purchased from New England Biolabs (Frankfurt, Germany): Akt antibody (#9272), detecting total Akt kinase levels, phospho-Akt antibody (Ser473, #9270), detecting phosphorylated Ser 473 in Akt1, Akt2 and Akt3, MAP kinase antibody (# 9102), detecting total MAP kinase, phospho-p44/42 MAP kinase (#9101) detecting activated MAP kinase phosphorylated at Thr 202/[…]. Monoclonal antibody against p53 was purchased from Oncogene Research Products (Ab-6, #OP43). Polyclonal antibodies against total or activated p38 MAP kinases were purchased from New England Biolabs. Phospho-p38 MAP kinase polyclonal antibody (#9211) detects phosphorylated threonine 180 and tyrosine 182 p38 MAP kinase (#9212). […]

[3] = test system: Akt/PKB; experiment: Western blot with phosphorylation-specific antibodies, Akt/PKB; settings: data not shown
Procedure: as §1

[4] = test system: wt-EcadEGFP expressing MDA-MB-435S cells; experiment: Time-lapse imaging of motility and E-cadherin localization, wt-EcadEGFP transfectants; settings: for cell motility (range of cell speeds) / cell paths (range): wt-EcadEGFP cells, 10 cells, 4 h
Procedure: (§2) For time-lapse laser scanning microscopy, cells were cultivated overnight in a microscope-coupled incubation chamber (Zeiss, Jena, Germany) at 37 °C under 5% CO2. Cells were seeded at a density of 1×10^5 cells per 3.5-cm in collagen I-coated plates with a glass bottom which were purchased from MatTek Corporation (Ashland, Mass., USA). Uncoated plates were coated for 4 h at 37° C. with collagen I (100 μg/ml). EGFR kinase inhibitor Tyrphostin AG 1478 (Sigma, Deisenhofen, Germany) was used at a final concentration of 6.3 μM. […] Phase contrast images were taken at 2-3 min intervals with an Axiovert laser scanning microscope LSM 510 (Zeiss) with lens PNF 63× (oil) and an argon laser at 488 nm with a transmission filter of 515 nm.
(§3) To investigate the temporal localization of mutant E-cadherin during cell migration, EcadEGFP transfected cells were cultivated in an incubation chamber coupled with a Zeiss Axiovert 100 microscope. Cells transfected with the vector pEGFP-N2 Vektor or the different EcadEGFP constructs (wt-EcadEGFP and p8-EcadEGFP), were seeded on collagen I coated dishes with glas bottom.

[5] = test system: p8-EcadEGFP expressing MDA-MB-435S cells; experiment: Time-lapse imaging of motility and E-cadherin localization, p8-EcadEGFP transfectants
Procedure: as §2, §3

[6] = test system: MDA-MB-435S cells expressing wt E-cadherin; experiment: Cell motility by time-lapse laser scanning microscopy, wt E-cadherin transfectants
Procedure: For time-lapse laser scanning microscopy, cells were cultivated in a microscope-coupled incubation chamber (Zeiss, Jena, Germany) at 37° C. under 5% CO2. Cells were seeded at a density of 2×10^5 cells per 3.5-cm in plates with a glass bottom which were purchased either uncoated or coated with poly-lysine from MatTek Corporation (Ashland, Mass., USA). Uncoated plates were coated for 4 h at 37° C. with collagen I (100 μg/ml, Sigma, Deisenhofen, Germany) or overnight at 4° C. with fibronectin (10 μg/ml, Sigma) or vitronectin (10 μg/ml, Becton Dickinson, Bedford, USA). Kinase inhibitors were used at final concentrations of 50 μM (PD 98059, Sigma, Deisenhofen, Germany), 40 μM (LY 294002, Calbiochem, Schwalbach, Germany), or 6.3 μM (Tyrphostin AG 1478, Sigma).
Phase contrast images were taken at 3 min intervals with an Axiovert laser scanning microscope LSM 510 (Zeiss) with lens PNF 20×/0.4 PH2 and a helium-neon laser at 543 nm in transmission scanning mode. The percentage of motile cells was measured by drawing the outlines of cells on the screen and counting the cells which moved completely out of the initial area within the recording time of 7 h. […]
Cells were brought in suspension by disruption of cell-cell and cell-matrix interactions and seeded on glass plates precoated with collagen type 1. Cell motility was analyzed by long-term recordings of a duration of 7 h starting 2 h after plating using a laser scanning microscope coupled with a temperature- and CO2-controlled incubation chamber. […]
It has been shown for a number of cell lines that the motile behavior of individual cells is variable and therefore it is advisable to investigate a large number of cells to obtain a reliable determination of cellular velocity (Hartmann-Petersen, Cytometry 40 (2000), 260-270). In order to determine the motility of individual cells, the center of the nucleus was semiautomatically traced and the speed of 60 cells per cell line derived from at least three independent experiments was calculated. […]

[7] = collagen I, Tyrphostin AG1478 6,3 μM
[8] = p8-EcadEGFP cells, collagen I, Tyrphostin AG1478 6,3 μM, 10 cells, 4 h
[9] = serum starved overnight, EGF 100 ng/ml

## COc1cccc(-c2cc(=O)c3ccccc3o2)c1N [PD 98059]
[1]
  cell motility enhanced by mutant E-cadherin (effect of inhibitor): less effective; also recorded: no inhibitory effect
[2]
  EGF-induced activation of MAP kinase (phosphorylation): effectively blocked

## COc1cc2ncnc(Nc3cccc(Cl)c3)c2cc1OC [Tyrphostin AG 1478]
[1]
  cell motility enhanced by mutant E-cadherin (effect of inhibitor): sensitive
[1]; traced 7 h
  median and range of cell speeds: decreased to the level of wt E-cadherin expressing cells
  percentage of motile cells: decreased to the level of wt E-cadherin expressing cells
[2]
  EGF-induced activation of MAP kinase (phosphorylation): completely blocked
[3]
  EGF-induced activation of Akt/PKB: completely blocked
[4]; Tyrphostin AG1478 6,3 μM
  localization of wt-EcadEGFP: not significantly changed; also recorded: no influence
[4]; [7]
  cell motility (range of cell speeds): 1,3-8,8 μm/h
  cell paths (range): 15,1-35,2 μm
[5]; Tyrphostin AG1478 6,3 μM
  localization of p8-EcadEGFP: also localized perinuclear and at cell cell adhesion sites; also recorded: localized at cell cell contacts and perinuclear
[5]; [8]
  cell motility (range of cell speeds): 5,7-20 μm/h
  cell paths (range): 22,8-80,3 μm

## epidermal growth factor [EGF]
[6]; wt E-cadherin cells on collagen I, 7 h, EGF 100 ng/ml
  percentage of motile cells: increased to the level of del 8 E-cadherin expressing cells
[6]; wt E-cadherin cells, EGF treatment
  cellular motility: enhanced cellular motility
[6]; wt or del 8 E-cadherin cells on collagen I, 2 h after plating, EGF 100 ng/ml (FIG. 5C)
  cell morphology: developed filopodia and lost cell to cell contacts
[4]; [9]
  cell motility (range of cell speeds): 3,8-15,6 μm/h
  cell paths (range): 15,1-62,4 μm
[5]; EGF 100 ng/ml, p=0,364 Kruskal Wallis Test
  effect on the motility of p8-EcadEGFP transfected cells: only minor effects
[5]; p8-EcadEGFP cells, serum starved overnight, EGF 100 ng/ml, 10 cells, 4 h
  cell paths (range): 19,7-97,2 μm
[5]; serum starved, EGF 100 ng/ml
  localization of p8-EcadEGFP: detectable at the cell edges and in lamellipodiae and at cell cell contact sites; also recorded: no influence
